{
  "source": "patent US20180008592A1",
  "about": "“TREATMENT OF UREMIC PRURITUS” (TREVI THERAPEUTICS, INC., priority 2016, published 2018)",
  "key": {"[1]": {"tested_on": "renally impaired patients on hemodialysis with moderate or severe uremic pruritus", "assay": "Same trial: Hospital Anxiety and Depression Scale (HADS)", "type": "in vivo, human", "description": "The primary endpoint was the change from Baseline to the Evaluation Period (Study weeks 7 and 8) in the modified intent-to-treat population. Quality of life-related secondary endpoints included change from Day 1 to the Evaluation Period in itching-related quality of life (using the Skindex-10 (FIG. 8)) and itching-related sleep disruption (using the Itch Medical Outcomes Study [Itch MOS] (FIG. 9), SLP-9). The Hospital Anxiety and Depression Score (HADS) used as a general measure of anxiety and depression. All patient-reported outcomes measures were selected based on their prior validation in uremic pruritus patients specifically or in the dialysis population more generally.\nThe primary and quality of life secondary endpoint analyses used a mixed model repeated measures ANCOVA with the main effects of treatment and site and baseline worst itch NRS score as the covariate. The model included time (i.e. Visit) as a factor variable and treatment*time (with placebo as the reference category) with an unstructured covariance structure for repeated measures. Data from all post-baseline visits were used to fit the model. For the primary endpoint, the baseline value was defined as the mean of worst itch daytime and nighttime NRS scores used for satisfying the protocol inclusion criterion #5 (mean worst itching NRS≧4.5 based on a total of 3 daytime and 3 nighttime measurements from 3 dialysis visits). For the secondary endpoints, the baseline value was based on a measurement taken on Study Day 1, prior to randomization. A pre-specified step-down procedure was used. The first comparison was of nalbuphine 120 mg BID dose vs. placebo. If the first comparison was significant at the p<0.05 level, then the comparison between the nalbuphine 60 mg BID dose vs. placebo would be conducted. Patients with a 15% or greater response in worst itch NRS were analyzed using a Cochran-Mantel-Haenszel (CMH) test. Analysis of the Itch MOS utilized the SLP-9 scoring algorithm.\nIn the first 2 weeks of treatment, patients were blindly force-titrated to their assigned target dose, with the patients in the active arms reaching a dose of 60 mg BID (NAL 60) after the first week and, for those in the high dose group, to 120 mg BID (NAL 120) after the second week. Study drug was administered in blister cards containing the labeled morning and evening doses for each day of the week. Subsequently, patients continued stable doses of the study drug for an additional 6 weeks and were then washed off study drug and followed for another 2 weeks for itching intensity and safety. […]"}, "[2]": {"tested_on": "renally impaired patients on hemodialysis with moderate or severe uremic pruritus", "assay": "Same trial: safety and tolerability (adverse events, discontinuation)", "type": "in vivo, human", "description": "The term “adverse event” (AE) as used herein is defined as any untoward medical occurrence in a clinical investigation patient reported on or after the first screening date. […] An AE can therefore be any unfavorable and unintended sign (including an abnormal laboratory finding), symptom whether or not related to the medicinal (investigational) product, or disease temporally associated with the use of a medicinal (investigational) product. Typical adverse events include nausea, vomiting, somnolence, dizziness and hallucination. In accordance with the present invention, the rate of adverse events after the treatment is substantially the same as the rate of adverse events after administering a placebo for the same period of time.\nThis clinical study was a parallel, double-blind, placebo-controlled trial in which renally impaired patients on hemodialysis with moderate or severe uremic pruritus were randomized in a 1:1:1 ratio to nalbuphine ER tablets to a target dose of 120 mg BID or 60 mg BID, or matching placebo tablets BID. Medications taken for treatment of pruritus (“antipruritic medications”) were not prohibited, but their use was recorded throughout the study. Use of skin emollients was also not restricted. A placebo comparator was chosen because there are no approved treatments for uremic pruritus in the United States or Europe or an established standard of care that could serve as an active control.\nThe primary objectives were to evaluate the effects on itching intensity using a Worst Itching Intensity Numerical Rating Scale (NRS, 0 [no itching]-10 [worst possible itching]) (FIG. 7) as well as safety and tolerability. The study was conducted at 46 United States investigative sites and 6 investigative sites in Romania and Poland. The Sponsor oversaw the conduct of the trial and an independent unblinded Data Safety Monitoring Board reviewed safety data approximately once a month during the conduct of the trial.\nIn the first 2 weeks of treatment, patients were blindly force-titrated to their assigned target dose, with the patients in the active arms reaching a dose of 60 mg BID (NAL 60) after the first week and, for those in the high dose group, to 120 mg BID (NAL 120) after the second week. Study drug was administered in blister cards containing the labeled morning and evening doses for each day of the week. Subsequently, patients continued stable doses of the study drug for an additional 6 weeks and were then washed off study drug and followed for another 2 weeks for itching intensity and safety. No down-titration was permitted during the study, although patients who missed 6 or more consecutive doses during the Stable Dose Period (Weeks 3-8) could, with the Medical Monitor's approval, re-start treatment with blinded re-titration of just the morning or evening dose for 3 days before returning to the original dose. Patients were allowed to remain on their background antipruritic medications such as antihistamines and the use of these medications and indication for treatment was collected."}},
  "data": [
    {"smiles": "Cl.Oc1ccc2c3c1O[C@H]1[C@@H](O)CC[C@@]4(O)[C@@H](C2)N(CC2CCC2)CC[C@]314", "note": "[Nalbuphine, 17-(cyclobutylmethyl)-4,5α-epoxymorphinian-3,6α, 14-triol, hydrochloride]", "values": [
      {"measurement": "HADS Anxiety Subscale (0-21), change from Baseline to the Evaluation Period, mean (SD)", "setting": "[1]; 60 mg BID, N = 128", "result": "−1.72 (3.0)"},
      {"measurement": "HADS Depression Subscale (0-21), change from Baseline to the Evaluation Period, mean (SD)", "setting": "[1]; 60 mg BID, N = 128", "result": "−0.68 (3.1)"},
      {"measurement": "HADS Anxiety Subscale (0-21), change from Baseline to the Evaluation Period, mean", "setting": "[1]; 120 mg BID, N = 120", "result": "−1.64"},
      {"measurement": "HADS Depression Subscale (0-21), change from Baseline to the Evaluation Period, mean", "setting": "[1]; 120 mg BID, N = 120", "result": "−1.03"},
      {"measurement": "Adverse Events Leading to Discontinuation: Dizziness", "setting": "[2]; 60 mg BID", "result": 0.8, "unit": "%"},
      {"measurement": "Adverse Events Leading to Discontinuation: Hallucination", "setting": "[2]; 60 mg BID", "result": 1.6, "unit": "%"},
      {"measurement": "Adverse Events Leading to Discontinuation: Nausea", "setting": "[2]; 60 mg BID", "result": 9.5, "unit": "%"},
      {"measurement": "Adverse Events Leading to Discontinuation: Somnolence", "setting": "[2]; 60 mg BID", "result": 4.0, "unit": "%"},
      {"measurement": "Adverse Events Leading to Discontinuation: Vomiting", "setting": "[2]; 60 mg BID", "result": 9.5, "unit": "%"},
      {"measurement": "Adverse Events Leading to Discontinuation, number of patients", "setting": "[2]; 60 mg BID, N = 128", "result": 33},
      {"measurement": "Adverse Events Leading to Discontinuation, percent of patients", "setting": "[2]; 60 mg BID, N = 128", "result": 26.2, "unit": "%"},
      {"measurement": "Serious Adverse Events (incidence)", "setting": "[2]; 60 mg BID, N = 128, hydrochloride", "result": 12.7, "unit": "%"},
      {"measurement": "Serious Adverse Events (incidence)", "setting": "[2]; 60 mg BID, N = 128, listed as NAL 60, hydrochloride", "result": 12.7, "unit": "%"},
      {"measurement": "Adverse Events Leading to Discontinuation: Dizziness", "setting": "[2]; 120 mg BID", "result": 2.5, "unit": "%"},
      {"measurement": "Adverse Events Leading to Discontinuation: Hallucination", "setting": "[2]; 120 mg BID", "result": 2.5, "unit": "%"},
      {"measurement": "Adverse Events Leading to Discontinuation: Nausea", "setting": "[2]; 120 mg BID", "result": 10.0, "unit": "%"},
      {"measurement": "Adverse Events Leading to Discontinuation: Somnolence", "setting": "[2]; 120 mg BID", "result": 1.7, "unit": "%"},
      {"measurement": "Adverse Events Leading to Discontinuation: Vomiting", "setting": "[2]; 120 mg BID", "result": 5.0, "unit": "%"},
      {"measurement": "Adverse Events Leading to Discontinuation, number of patients", "setting": "[2]; 120 mg BID, N = 120", "result": 27},
      {"measurement": "Adverse Events Leading to Discontinuation, percent of patients", "setting": "[2]; 120 mg BID, N = 120", "result": 22.5, "unit": "%"},
      {"measurement": "Serious Adverse Events (incidence)", "setting": "[2]; 120 mg BID, N = 120, hydrochloride", "result": 6.7, "unit": "%"},
      {"measurement": "Serious Adverse Events (incidence)", "setting": "[2]; 120 mg BID, N = 120, listed as NAL 120, hydrochloride", "result": 6.7, "unit": "%"},
      {"measurement": "mood effects (adverse event reporting, Skindex-10 mood domain, HADS)", "setting": "[2]; ER tablets, both doses", "result": "neutral in mood effects"},
      {"measurement": "safety profile", "setting": "[2]; ER tablets, both doses", "result": "no adverse safety trends other than those expected from a centrally-acting opioid"}
    ]}
  ]
}
